Results from patent publication US10738043B2, “GLS1 inhibitors for treating disease” (Board of Regents, The University of Texas System, priority 2015, dated 2020).
Read-outs that look alike come from different tables or passages of the source.

Tests used:
[1] = biological target: T1, GLS1 (purified recombinant human GAC) (Homo sapiens, UniProt O94925); assay: GLS1 Enzymatic Activity Assay (dual-coupled enzymatic assay); type: biochemical; details: 50 mM potassium phosphate, 1 mM glutamine, read-out: IC50 against GLS1
T1 sequence (O94925 55-598 isoform O94925-3 limits assumed): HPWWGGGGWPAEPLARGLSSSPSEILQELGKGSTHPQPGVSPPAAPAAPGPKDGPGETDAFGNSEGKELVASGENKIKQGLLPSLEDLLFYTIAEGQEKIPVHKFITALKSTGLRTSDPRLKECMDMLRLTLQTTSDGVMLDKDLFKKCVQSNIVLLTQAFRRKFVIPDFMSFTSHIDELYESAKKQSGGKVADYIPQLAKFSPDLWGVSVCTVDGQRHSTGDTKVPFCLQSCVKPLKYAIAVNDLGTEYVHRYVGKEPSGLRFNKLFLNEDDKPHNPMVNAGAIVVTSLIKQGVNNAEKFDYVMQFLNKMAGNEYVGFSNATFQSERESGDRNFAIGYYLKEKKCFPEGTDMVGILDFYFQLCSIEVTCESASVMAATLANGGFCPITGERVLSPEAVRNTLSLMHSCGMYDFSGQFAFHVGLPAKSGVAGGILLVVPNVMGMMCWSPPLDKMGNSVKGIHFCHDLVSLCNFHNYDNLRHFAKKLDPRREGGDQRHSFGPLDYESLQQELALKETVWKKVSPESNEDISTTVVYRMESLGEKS
Method: GLS1 Enzymatic Activity Assay
The inhibition of purified recombinant human GAC by varying concentrations of inhibitors is assessed via a dual-coupled enzymatic assay. The glutamate produced by the glutaminase reaction is used by glutamate oxidase to produce α-ketoglutarate, ammonia, and hydrogen peroxide, with this hydrogen peroxide subsequently being used by horseradish peroxidase to produce resorufin in the presence of Amplex UltraRed. The assay buffer consisted of 50 mM HEPES (pH 7.4), 0.25 mM EDTA and 0.1 mM Triton X-100. GAC was incubated with potassium phosphate (10 minutes at room temperature) prior to incubation with inhibitor (10 minutes at room temperature). The final reaction conditions were as follows: 2 nM GAC, 50 mM potassium phosphate, 100 mU/ml glutamate oxidase (Sigma), 1 mM glutamine (Sigma), 100 mU/ml horseradish peroxidase (Sigma), 75 μM Amplex UltraRed (Life Technologies), and 1% (v/v) DMSO. The production of resorufin was monitored on a Perkin Elmer Envision plate reader (excitation 530 nm, emission 590 nm) either in a kinetics or endpoint mode (at 20 minutes). IC50 values were calculated using a four-parameter logistic curve fit.

A549 cells = assay: Proliferation Assay (A549 viability, Cell Titer Fluor, 72 hours); type: cell-based; details: read-out: EC50 against A549 cell proliferation
Method: A549 cells were routinely maintained in RPMI 1640 media (Gibco catalog number 11875-093) supplemented with 10% dialyzed fetal bovine serum using a humidified incubator (37° C., 5% CO2 and ambient O2). In preparation for the viability assay, cells were inoculated into 384-well black CulturPlates (Perkin Elmer) at a density of 1000 cells/well in a volume of 40 μl. Following a 24-hour incubation at 37° C., 5% CO2 and ambient 02, cells were treated with compound (10 μl) in a final DMSO concentration of 0.5% (v/v). The microplates were then incubated for 72 hours (37° C., 5% CO2 and ambient O2). Cell Titer Fluor (Promega) was subsequently added (10 μl of 6× reagent) and mixed for 15 minutes at room temperature. The plates were then incubated for 30 minutes (37° C., 5% CO2 and ambient O2) and fluorescence was subsequently read on the Perkin Elmer Envision plate reader. EC50 values were calculated using a four-parameter logistic curve fit.

Row | Compound | IC50 [1] [nM] | EC50 (A549 cells; Homo sapiens) [nM] | EC50 (A549 cells) [nM]
1 | O=C(Cc1cccc(OC(F)(F)F)c1)Nc1ccc(C2CCN(c3nnc(C(=O)NCc4ccccn4)s3)C2)nn1 (stereo not shown) [Example 22, N-(pyridin-2-ylmethyl)-5-(3-(6-(2-(3-(trifluoromethoxy)phenyl)acetamido)pyridazin-3-yl)pyrrolidin-1-yl)-1,3,4-thiadiazole-2-carboxamide] | < 100 | < 100 | 
2 | O=C(Cc1cccc(OC(F)(F)F)c1)Nc1ccc(N2CCCC(c3nnc(NC(=O)Cc4ccccc4F)s3)C2)nn1 (stereo not shown) [Example 23, 2-(2-fluorophenyl)-N-(5-(1-(6-(2-(3-(trifluoromethoxy)phenyl)acetamido)pyridazin-3-yl)piperidin-3-yl)-1,3,4-thiadiazol-2-yl)acetamide] | < 100 | 100 to 500 | 
3 | CNC(=O)c1nnc(N2CCC(c3ccc(NC(=O)Cc4ccccn4)nn3)C2)s1 (stereo not shown) [Example 41, N-methyl-5-(3-(6-(2-(pyridin-2-yl)acetamido)pyridazin-3-yl)pyrrolidin-1-yl)-1,3,4-thiadiazole-2-carboxamide] | 100 to 500 | 100 to 500 | 
4 | NC(=O)c1nnc(N2CCC(c3ccc(NC(=O)Cc4ccccn4)nn3)C2)s1 (stereo not shown) [Example 39, 5-(3-(6-(2-(pyridin-2-yl)acetamido)pyridazin-3-yl)pyrrolidin-1-yl)-1,3,4-thiadiazole-2-carboxamide] | 100 to 500 | 500 to 5000 | 

Second part, the compound after the results:

Row | IC50 [1] [nM] | EC50 (A549 cells; Homo sapiens) [nM] | EC50 (A549 cells) [nM] | Compound
5 | 500 to 5000 | 500 to 5000 |  | O=C(Nc1ccc(N2CCC(n3cc(C(=O)NCc4ccccn4)nn3)C2)nn1)OCc1ccccc1 (stereo not shown) [Example 5, Benzyl (6-(3-(4-((pyridin-2-ylmethyl)carbamoyl)-1H-1,2,3-triazol-1-yl)pyrrolidin-1-yl)pyridazin-3-yl)carbamate]
6 | 100 to 500 | 500 to 5000 |  | CC(=O)Nc1cn(C2CCN(c3ccc(NC(=O)Cc4cccc(OC(F)(F)F)c4)nn3)C2)nn1 (stereo not shown) [Example 11, N-(6-(3-(4-acetamido-1H-1,2,3-triazol-1-yl)pyrrolidin-1-yl)pyridazin-3-yl)-2-(3-(trifluoromethoxy)phenyl)acetamide]
7 | < 100 |  | 100 to 500 | 2-(thiazol-4-yl)-N-(5-(1-(6-(2-(3-(trifluoromethoxy)phenyl)acetamido)pyridazin-3-yl)pyrrolidin-3-yl)-1,3,4-thiadiazol-2-yl)acetamide [Example 31]
8 | < 100 | < 100 |  | Cc1cc(C(F)(F)F)cc(CNC(=O)c2nnc(N3CC[C@@H](c4ccc(NC(=O)Cc5ccccn5)nn4)C3)s2)n1 [Example 48, (R)-N-((6-methyl-4-(trifluoromethyl)pyridin-2-yl)methyl)-5-(3-(6-(2-(pyridin-2-yl)acetamido)pyridazin-3-yl)pyrrolidin-1-yl)-1,3,4-thiadiazole-2-carboxamide]
